Test system: patients with ALK-positive NSCLC
Test: Phase 1 safety assessment (TRAEs by CTCAE 4.03, DLT, MTD, RP2D)
Type: in vivo, human
Description: In the dose-escalation phase, the dose was escalated sequentially from a low to a high level with a 3 + 3 dose-escalation scheme based on the modified Fibonacci method. The starting dose for conteltinib was 50 mg orally quaque die (QD). Dose escalation proceeded to the next six cohorts of 100 mg, 200 mg, 300 mg, 450 mg, 600 mg, and 800 mg QD. For each dose, there was a PK lead-in phase where a single dose was given 7 days before cycle 1 day 1. Then, each dose was taken continuously in a 28-day cycle. The first cycle was for dose-limiting toxicity (DLT) investigation. When one of three patients experienced a DLT in a dose cohort, three additional patients were enrolled in the same dose cohort to assess the dose level in a total of six patients. All patients received conteltinib until disease progression, unacceptable toxicity, or withdrawal of consent. Patients received follow-up safety assessments for 30 days (±7 days) after the last conteltinib dose.
In the dose-expansion phase, each dose was taken continuously in a 28-day cycle. At the end of each cycle, a safety evaluation was conducted. If patients met the criteria to enter the next cycle, treatment with conteltinib was continued for subsequent cycles. All patients received conteltinib until disease progression, unacceptable toxicity, or withdrawal of consent. Patients received follow-up safety assessments for 30 days (±7 days) after the last dose of conteltinib.
The safety of conteltinib was assessed in safety set (SS) which was based on the National Cancer Institute Common Terminology Criteria for Adverse Events (CTCAE) version 4.03, laboratory tests, vital signs, ECG, and clinical observations. […] Adverse events (AEs) were judged to be treatment-related or not by investigators.
DLTs were AEs occurring in the first cycle of treatment (28 days) that were attributed to conteltinib, and the criteria were grade 4 neutropenia lasting ≥ 7 days, febrile neutropenia, grade 3 thrombocytopenia, grade 3 non-hematologic toxicity, and any conteltinib-related toxicity resulting in treatment delay > 2 weeks or discontinuation of conteltinib treatment at the assigned dose level. Besides, grade 3 nausea, vomiting, or diarrhea for ≥ 3 days or grade 4 nausea, vomiting, or diarrhea of any duration was considered as a DLT. The MTD was defined as the dose of conteltinib that would be closest to but not higher than a 33% probability of a DLT.

## COc1cc(N2CCC(N3CCN(C)CC3)CC2)ccc1Nc1nc2c(c(Nc3ccccc3S(=O)(=O)NC(C)C)n1)CCN2 [Conteltinib]
800 mg QD (n=4), Grade ≥ 3
  TRAE Hypertriglyceridemia: 0 (0.0) n (%)
  TRAE Hyperuricemia: 0 (0.0) n (%)
  TRAE Hypoalbuminemia: 0 (0.0) n (%)
  TRAE Nausea: 0 (0.0) n (%)
  TRAE Proteinuria: 0 (0.0) n (%)
  TRAE Serum creatinine elevated: 0 (0.0) n (%)
  TRAE Vomiting: 0 (0.0) n (%)
  TRAE Weight loss: 0 (0.0) n (%)
  TRAE γ-GGT elevated: 0 (0.0) n (%)
800 mg QD cohort
  DLTs: No DLTs were observed
64 patients, impaired liver function
  patients with permanent discontinuation due to TRAE: 3.1%
64 patients, serum creatinine elevated and impaired liver function
  patients with TRAEs leading to conteltinib interruption: 6.3%
64 patients, serum creatinine elevated, neutropenia, impaired liver function
  patients with TRAEs leading to dose reduction: 4.7%
SS, 64 patients
  patients with grade ≥ 3 TRAEs: 14.1%
SS, 64 patients, all grades
  TRAE ALT elevated: 34.4%
  TRAE AST elevated: 39.1%
  TRAE Abdominal pain: 26.6%
  TRAE Abdominal pain upper: 17.2%
  TRAE Appetite decreased: 18.75%
  TRAE Conjugated bilirubin elevated: 10.9%
  TRAE Diarrhea: 71.9%
  TRAE Hypercholesterolemia: 12.5%
  TRAE Hyperglycemia: 15.6%
  TRAE Hypertriglyceridemia: 23.4%
  TRAE Hyperuricemia: 31.25%
  TRAE Hypoalbuminemia: 17.2%
  TRAE Nausea: 37.5%
  TRAE Proteinuria: 21.9%
  TRAE Serum creatinine elevated: 45.3%
  TRAE Vomiting: 35.9%
  TRAE Weight loss: 28.1%
  TRAE γ-GGT elevated: 32.8%
  patients with TRAEs: 90.6%
SS, 64 patients, grade ≥ 3
  TRAE Conjugated bilirubin elevated: 1.6%
  TRAE Diarrhea: 3.1%
  TRAE Serum creatinine elevated: 1.6%
  TRAE γ-GGT elevated: 7.8%
Total (n=64), All grade
  Patients with any TRAE: 58 (90.6) n (%)
  TRAE ALT elevated: 22 (34.4) n (%)
  TRAE AST elevated: 25 (39.1) n (%)
  TRAE Abdominal pain: 17 (26.6) n (%)
  TRAE Abdominal pain upper: 11 (17.2) n (%)
  TRAE Appetite decreased: 12 (18.8) n (%)
  TRAE Conjugated bilirubin elevated: 7 (10.9) n (%)
  TRAE Diarrhea: 46 (71.9) n (%)
  TRAE Hypercholesterolemia: 8 (12.5) n (%)
  TRAE Hyperglycemia: 10 (15.6) n (%)
  TRAE Hypertriglyceridemia: 15 (23.4) n (%)
  TRAE Hyperuricemia: 20 (31.3) n (%)
  TRAE Hypoalbuminemia: 11 (17.2) n (%)
  TRAE Nausea: 24 (37.5) n (%)
  TRAE Proteinuria: 14 (21.9) n (%)
  TRAE Serum creatinine elevated: 29 (45.3) n (%)
  TRAE Vomiting: 23 (35.9) n (%)
  TRAE Weight loss: 18 (28.1) n (%)
  TRAE γ-GGT elevated: 21 (32.8) n (%)
Total (n=64), Grade 1–2
  Patients with any TRAE: 58 (90.6) n (%)
  TRAE ALT elevated: 22 (34.4) n (%)
  TRAE AST elevated: 25 (39.1) n (%)
  TRAE Abdominal pain: 17 (26.6) n (%)
  TRAE Abdominal pain upper: 11 (17.2) n (%)
  TRAE Appetite decreased: 12 (18.8) n (%)
  TRAE Conjugated bilirubin elevated: 6 (9.4) n (%)
  TRAE Diarrhea: 44 (68.8) n (%)
  TRAE Hypercholesterolemia: 8 (12.5) n (%)
  TRAE Hyperglycemia: 10 (15.6) n (%)
  TRAE Hypertriglyceridemia: 15 (23.4) n (%)
  TRAE Hyperuricemia: 20 (31.3) n (%)
  TRAE Hypoalbuminemia: 11 (17.2) n (%)
  TRAE Nausea: 24 (37.5) n (%)
  TRAE Proteinuria: 14 (21.9) n (%)
  TRAE Serum creatinine elevated: 28 (43.8) n (%)
  TRAE Vomiting: 23 (35.9) n (%)
  TRAE Weight loss: 18 (28.1) n (%)
  TRAE γ-GGT elevated: 16 (25.0) n (%)
Total (n=64), Grade ≥ 3
  Patients with any TRAE: 9 (14.1) n (%)
  TRAE ALT elevated: 0 (0.0) n (%)
  TRAE AST elevated: 0 (0.0) n (%)
  TRAE Abdominal pain: 0 (0.0) n (%)
  TRAE Abdominal pain upper: 0 (0.0) n (%)
  TRAE Appetite decreased: 0 (0.0) n (%)
  TRAE Conjugated bilirubin elevated: 1 (1.6) n (%)
  TRAE Diarrhea: 2 (3.1) n (%)
  TRAE Hypercholesterolemia: 0 (0.0) n (%)
  TRAE Hyperglycemia: 0 (0.0) n (%)
  TRAE Hypertriglyceridemia: 0 (0.0) n (%)
  TRAE Hyperuricemia: 0 (0.0) n (%)
  TRAE Hypoalbuminemia: 0 (0.0) n (%)
  TRAE Nausea: 0 (0.0) n (%)
  TRAE Proteinuria: 0 (0.0) n (%)
  TRAE Serum creatinine elevated: 1 (1.6) n (%)
  TRAE Vomiting: 0 (0.0) n (%)
  TRAE Weight loss: 0 (0.0) n (%)
  TRAE γ-GGT elevated: 5 (7.8) n (%)
dose-expansion phase
  DLTs: No DLTs were observed
Doses 50 to 800 mg QD
  MTD: not reached
In vivo
  deaths during treatment: No patients died
This study
  rash: 6.25%
  visual effects: 1.6%

— article PMC9694544, “Conteltinib (CT-707) in patients with advanced ALK-positive non-small cell lung cancer: a multicenter, open-label, first-in-human phase 1 study” (BMC Medicine, 2022)
